The results in this text go back to article PMC7343857, “New natural agonists of the transient receptor potential Ankyrin 1 (TRPA1) channel” (Scientific Reports, 2020).

This experiment has as its target T1, hTRPA1 (Homo sapiens, UniProt O75762).
T1 construct: gene TRPA1
Kind of experiment: ratiometric calcium imaging and whole-cell patch clamp in CHO cells with inducible hTRPA1; non-induced cells as control. Format: cell-based. On the technique in general: Patch clamp records ionic current or voltage across a cell membrane.

Read-outs that look alike come from different tables or passages of the source.

T1 sequence (O75762 whole entry): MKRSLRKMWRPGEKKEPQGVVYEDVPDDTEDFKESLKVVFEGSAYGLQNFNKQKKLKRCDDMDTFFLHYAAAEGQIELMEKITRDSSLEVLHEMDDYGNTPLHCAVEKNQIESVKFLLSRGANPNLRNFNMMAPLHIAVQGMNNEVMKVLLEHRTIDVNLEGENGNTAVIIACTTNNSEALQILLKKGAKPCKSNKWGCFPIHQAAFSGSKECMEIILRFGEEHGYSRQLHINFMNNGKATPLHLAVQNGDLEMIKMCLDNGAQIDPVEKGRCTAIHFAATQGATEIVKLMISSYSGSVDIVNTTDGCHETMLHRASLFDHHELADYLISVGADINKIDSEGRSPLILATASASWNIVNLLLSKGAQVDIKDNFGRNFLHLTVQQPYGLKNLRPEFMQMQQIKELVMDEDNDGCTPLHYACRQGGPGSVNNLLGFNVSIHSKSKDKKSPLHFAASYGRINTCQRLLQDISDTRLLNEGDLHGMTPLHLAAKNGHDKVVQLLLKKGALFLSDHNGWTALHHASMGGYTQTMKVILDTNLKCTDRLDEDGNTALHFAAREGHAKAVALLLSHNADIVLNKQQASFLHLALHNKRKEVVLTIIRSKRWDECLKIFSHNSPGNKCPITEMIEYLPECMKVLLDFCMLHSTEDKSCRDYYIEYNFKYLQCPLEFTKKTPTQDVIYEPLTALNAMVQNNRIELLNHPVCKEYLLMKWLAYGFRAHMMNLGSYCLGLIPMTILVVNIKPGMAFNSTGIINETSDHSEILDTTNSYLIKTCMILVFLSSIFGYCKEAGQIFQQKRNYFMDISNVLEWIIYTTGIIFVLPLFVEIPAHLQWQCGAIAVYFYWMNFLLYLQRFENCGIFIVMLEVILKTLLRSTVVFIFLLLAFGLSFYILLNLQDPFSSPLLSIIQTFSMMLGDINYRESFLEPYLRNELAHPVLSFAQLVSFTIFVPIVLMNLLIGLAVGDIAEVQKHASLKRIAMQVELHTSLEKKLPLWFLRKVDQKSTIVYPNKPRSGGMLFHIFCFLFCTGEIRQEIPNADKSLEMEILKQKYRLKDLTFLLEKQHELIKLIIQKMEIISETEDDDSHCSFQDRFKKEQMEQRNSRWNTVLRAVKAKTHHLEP

Take `CC(C)c1ccc(C=O)cc1` [cuminaldehyde]: under “read-out: EC50”, the EC50 (commonly the concentration giving half of the maximal effect) was 720 µM.

For `COc1ccc(C=O)cc1` [p-anisaldehyde], the EC50 worked out at 910 µM. Consider `C/C=C(\C)C=O` [tiglic aldehyde], for which, for the setting “read-out: EC50”, the 50% effective concentration (EC50) stood at 1490 µM.
